“And” between values parts separate entries of the source, which are not always exact repeats. Equal entries are not always repeated.
Key:
human islet GK isoform = target: T1, human islet GK isoform (Homo sapiens, UniProt P35557); test: Glucokinase Assay; assay type: biochemical
T1 construct: (His)6; made in house; host or cells: E. coli
T1 sequence (P35557 1-465): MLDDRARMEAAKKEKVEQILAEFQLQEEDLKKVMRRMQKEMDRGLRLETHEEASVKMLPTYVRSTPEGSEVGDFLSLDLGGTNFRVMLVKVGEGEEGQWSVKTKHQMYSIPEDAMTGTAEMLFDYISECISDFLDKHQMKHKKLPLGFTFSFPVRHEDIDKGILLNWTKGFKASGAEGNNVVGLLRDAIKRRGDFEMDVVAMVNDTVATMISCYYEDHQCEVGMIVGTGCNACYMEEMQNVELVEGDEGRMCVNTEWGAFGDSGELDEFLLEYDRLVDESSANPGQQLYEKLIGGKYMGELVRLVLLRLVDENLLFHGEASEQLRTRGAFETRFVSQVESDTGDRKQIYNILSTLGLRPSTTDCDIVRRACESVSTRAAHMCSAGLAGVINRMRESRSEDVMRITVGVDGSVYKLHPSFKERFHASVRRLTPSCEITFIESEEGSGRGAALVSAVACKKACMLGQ
Procedure: The human islet GK isoform is expressed in E. coli as (His)6-tagged fusion protein and purified with metal chelate affinity chromatography, see e.g. Tiedge et al., Biochem. Biophys. Acta 1337, 175-190, 1997. After purification the enzyme is stored in aliquots at concentration 0.8 mg/ml in 25 mM sodium phosphate, 150 mM sodium chloride, 100 mM imidazole, 1 mM dithiothreitol, 50% glycerol at −80° C. The assay is performed in flat bottom 96-well plates in a final incubation volume of 100 μL. The incubation mixture consists of 25 mM 4-(2-hydroxyethyl)-1-piperazineethanesulfonic acid (HEPES) (pH7.4), 50 mM potassiumchloride, 2.5 mM magnesiumchloride, 2 mM dithiothreitol, 4 U/ml glucose-6-phosphate dehydrogenase from Leuconostoc mesenteroides, 5 mM ATP, 1 mM NAD and a set concentration of glucose. Test compounds are dissolved in dimethylsulfoxide and then added to the reaction mixture giving the final dimethylsulfoxide concentration of 10%. The reaction is initiated by addition of 20 μL GK and run for 20 min at 37° C. The amount of formed NADH is measured as an increase in absorbance at 340 nm using a microplate reader. Absorbance values are used for EC50 calculations.

[1] = test system: Rat insulinoma INS-1E cells; test: Glycolysis Assay; assay type: cell-based; conditions: INS1-E cells, 8 mM glucose, n=4, read-out: mean EC50 of stimulation of glucose metabolism
Procedure: Rat insulinoma INS-1E cells are maintained at 37° C., 5% CO2, 95% humidity in 1640 medium supplemented with 11 mM glucose, 5% Fetal Bovine Serum, 50 μM 2-Mercaptoethanol, 1 mM pyruvate, 10 mM HEPES and antibiotics. Prior to assay, cells are trypsinized, pelleted by centrifugation and seeded into 96-well tissue culture assay plates at the density of 30,000 cells/well. Cells are allowed to attach and incubated for 48 hours at 37° C., 5% CO2. On the assay day, cells are washed with and incubated in 200 μL Earle's Balanced Salt Solution (EBSS) buffer supplemented with 0.1% Bovine Serum Albumin (BSA). After 30 minutes incubation, the buffer is removed and 100 μL EBSS buffer containing 0.1% BSA, 8 mM glucose and the compound is added to cells. Immediately after, 20 μL of CellTiter 96® AQueous One Solution Reagent is added to cells and cells are incubated at 37° C. for an additional hour. At the end of incubation absorbance at 490 nm is read. Absorbance values are used for EC50 calculations.

[2] = test system: plasma glucose in male Wistar rats; test: Oral Glucose Tolerance Test (OGTT); assay type: in vivo, rat
Procedure: Male Wistar rats at a weight of 225-250 g, are kept on regular diet and with normal light cycle and conditions. For the study, rats are fasted overnight before their exact weights are measured, and are randomized into groups of similar weights (n=4 per group). The compound is suspended in a 1:1 mixture of solutol/ethanol in a bath sonicator (10% of total volume). The obtained suspension is then diluted with 9 volumes of 10% aqueous solutol solution, and the compound is dosed orally at 1, 3, 6, 10, 20, and 30 mg/kg orally. Rats are given a 2 g/kg oral glucose bolus 2 hours after compound administration. Blood is collected via tail bleed at 0, 15, 30, 60, 90 and 120 minutes post glucose administration. Collected blood is placed into ethylenediaminetetraacetic acid (EDTA) tubes at volume of 400 μL per sample, and the samples are kept on ice. Plasma is isolated and stored at −20° C. until samples are analyzed for glucose and compound exposure. Area under the plasma glucose curve (glucose AUC) is calculated for each group and the percentage decrease in the glucose AUC versus the control group is used as a measure of efficacy of the compound to decrease plasma glucose.

[3] = Blood Brain Barrier Permeability; assay type: in vivo, mouse; conditions: male CF-1 mice, IV bolus 2.17 μmole/kg, five minutes post dose
Procedure: A stock compound solution is prepared in dimethylsulfoxide at 10 mM. A dose solution is then prepared at 1 mM by diluting 100 μL of the stock with 900 μL of propylene glycol. The dose is administered as an IV bolus (2.2 mL/kg) via the tail vein into six male CF-1 mice (approximately 23 g) for a target dose of 2.17 μmole/kg. Mice are euthanized using both CO2 and cervical dislocation. Three mice are sacrificed 5 minutes post dose and three 60 minutes post dose. Blood is collected from each animal via cardiac puncture, and plasma is prepared using sodium EDTA, transferred into polypropylene sample tubes and immediately frozen using dry ice. […]
MS/MS is effected using a Sciex API 4000 triple quadrupole mass spectrometer equipped with a turbo ion spray source. […] Column effluent is diverted to waste from 0-2.8 minutes and then directed into the mass spectrometer from 2.8-4.0 minutes MS/MS transitions monitored are 560/84. Quantitation of compound in test samples is achieved by comparing peak area values to a quadratic equation weighted 1/x^2 derived from the nominal concentrations of the calibration standards and their respective peak areas. Upper and Lower Limits of Quantitation are determined by the back calculated recoveries of calibration standards that exceeded +/−20% of theory. […]

## O=C(Nc1ncc(SCCN2CCCC2)s1)[C@]1(c2ccc(S(=O)(=O)C3CC3)cc2)C[C@H]1C1CCCCC1 [Example 1, (1R,2S)-2-Cyclohexyl-1-(4-cyclopropanesulfonyl-phenyl)-cyclopropanecarboxylic acid [5-(2-pyrrolidin-1-yl-ethylsulfanyl)-thiazol-2-yl]-amide]
Human islet GK isoform; 10 mM glucose, n=5, read-out: EC50 of GK activation
  EC50: 42 ± 42 nM
Human islet GK isoform; lower glucose concentrations
  enzyme activity at lower glucose concentrations: increased the enzyme activity in a concentration dependent manner
[1]
  EC50: 579 ± 139 nM
[2]; 30 mg/kg oral, 2 g/kg oral glucose bolus 2 hours after compound
  maximal lowering of glucose AUC versus the untreated control group: 42%
[2]; interpolation of the data
  average compound concentration in plasma at which a 20% glucose AUC decrease occurs: 99 ng/ml and 179 nM
[2]; interpolation of the data, oral
  compound dose corresponding to a 20% glucose AUC decrease: 6.9 mg/kg
[2]; oral 1-30 mg/kg, fasted and postprandial glucose levels
  effect on plasma glucose: decreases plasma glucose in a dose-dependent manner
[3]
  mean total brain level: 0.539 nmol/g
[3]; mouse, brain/plasma, read-out: mean brain/plasma ratio
  Kp at 5 min: 0.17

From US8063079B2, “Cyclopropyl compounds” (Eli Lilly and Company, priority 2008, dated 2011)
